Assays:
[1] = man; lower ineffective, above 1.5 mM side effects may arise; cited from earlier work
[2] = tested on: patients with Ménière's disease; test: Randomized, double blind, placebo-controlled cross-over clinical trial: tinnitus loudness after intratympanic injection; type: in vivo, human; conditions: for Reduction of tinnitus loudness in decibels, Day 5: Day 5 after initiation; for Reduction of tinnitus loudness in decibels, Day 5 / Reduction of tinnitus loudness in decibels, Day 15 / Reduction of tinnitus loudness in decibels, Day 29: intratympanic once daily for 3 days, vs placebo, baseline-corrected, mean ± SEM, lithium salt 450 μg/ml, isopropyl ester 50 μg/ml; for Reduction of tinnitus loudness in decibels, Day 15: Day 15 after initiation; for Reduction of tinnitus loudness in decibels, Day 29: Day 29 after initiation; for Effect on tinnitus loudness: intratympanic injection
Text: The invention is exemplified by the following non-limiting example based on a recently performed clinical trial: Patients suffering from unilateral Ménière's disease were enrolled in a randomized, double blind, placebo-controlled clinical trial. The study followed a cross-over protocol. The patients received an intratympanic injection (injection into the middle ear cavity) of latanoprost lithium salt or placebo once daily during the three first days of each treatment period. The effect on hearing and tinnitus loudness was measured on Days 5, 15 and 29. Thereafter there was a treatment-free cross-over period of 2 months. After the cross-over period the patient entered the second treatment period and latanoprost lithium salt or placebo was again administered by intratympanic injection once daily during the three first days, and the same measurements of hearing and tinnitus were repeated. Latanoprost lithium salt was tested at 50 μg/ml, 150 μg/ml and 450 μg/ml concentration, and in addition one group of patients received latanoprost (isopropyl ester) at 50 μg/ml concentration according to the same cross-over study protocol.

Lipophilicity comparison = type: physicochemical; conditions: ratio isopropyl ester / lithium salt
Text: Although the concentration of latanoprost lithium salt was 9 times higher than the concentration of latanoprost (isopropyl ester) we believe that the main additional effect (compared with latanoprost) is based on the lithium salt because the lipophilicity of latanoprost (isopropyl ester) is more than 1000 times higher than the lipophilicity of the latanoprost lithium salt. Consequently the ester can be expected to traverse biological membranes such as the round window membrane much better than the water-soluble salt. […] The concentration of 450 μg/ml of latanoprost lithium salt corresponds to approximately 1 mM lithium, i.e. a concentration within the therapeutic range of lithium. The lower concentrations 150 μg/ml and 50 μg/ml of latanoprost lithium salt had no effect which can be anticipated if the effect on tinnitus loudness at least partly is based on the pharmacological effect of lithium since the two lower concentrations are below the therapeutic concentration range of lithium.

[3] = tested on: patients suffering from Ménière's disease; conditions: cited from earlier work

SMILES	Therapeutic plasma concentration [1] [mM]	Reduction of tinnitus loudness in decibels, Day 5 [2] [decibels]	Reduction of tinnitus loudness in decibels, Day 15 [2] [decibels]	Reduction of tinnitus loudness in decibels, Day 29 [2] [decibels]	Lipophilicity relative to latanoprost lithium salt (Lipophilicity comparison)	Effect on hearing [3]	Effect on vertigo [3]	Effect on tinnitus ([3]; intratympanic injection)	Effect on tinnitus loudness ([2]; 50 μg/ml)	Effect on tinnitus loudness ([2]; 150 μg/ml)
[Li] [Lithium, lithium]	0.5 to 1.5	–	–	–	–	–	–	–	–	–
CC(C)OC(=O)CCC/C=C\C[C@@H]1[C@@H](CC[C@@H](O)CCc2ccccc2)[C@H](O)C[C@@H]1O [Latanoprost isopropyl ester, latanoprost]	–	−5.5 ± 2.7	−9.5 ± 5.8	−9.6 ± 4.6	more than 1000 times	improved hearing	reduced vertigo	may reduce tinnitus	–	–
O=C([O-])CCC/C=C\C[C@@H]1[C@@H](CC[C@@H](O)CCc2ccccc2)[C@H](O)C[C@@H]1O.[Li+] [Latanoprost acid lithium salt, latanoprost acid lithium salt]	–	−10.8 ± 3.5	−15.4 ± 6.4	−10.5 ± 3.9	–	–	–	–	no effect	no effect

— patent US20070219272A1, “Novel method and compositions for treatment of tinnitus” (priority 2006, published 2007)
